Experiment: xn = mol fraction of the nth substance listed, in the solute-free solvent

CN1CCN(C2=Nc3cc(Cl)ccc3Nc3ccccc32)CC1 + CC(C)=O + Cc1ccccc1
solubility (g/100 g solution)
Settings	x2 = 0.1503	x2 = 0.2841	x2 = 0.4047	x2 = 0.5141	x2 = 0.6136	x2 = 0.7038	x2 = 0.7876	x2 = 0.8642	x2 = 0.9343
293.15 K	4.2	5.72	6.98	7.87	8.37	8.49	8.42	8.02	7.41
298.15 K	4.59	6.06	7.92	8.77	9.44	9.83	9.53	9.03	8.42
303.15 K	5.42	7.16	8.86	9.9	10.6	10.7	9.99	9.78	8.81
308.15 K	6.11	8.41	9.86	10.9	11.9	12.3	11.6	11.3	10.4
313.15 K	7.38	9.81	11.5	12.7	13.4	13.6	13.4	12.9	11.9
318.15 K	8.97	11.4	13.2	14.3	15.4	15.3	15.5	14.8	13.4

CC(N)C(=O)O (stereo not drawn) + O + CC(C)O
solubility (g/100 g solution)
Settings	x2 = 0.1	x2 = 0.2	x2 = 0.3	x2 = 0.4	x2 = 0.5	x2 = 0.6	x2 = 0.7	x2 = 0.8	x2 = 0.9
283.15 K	0.0186	0.0381	0.0478	0.104	0.185	0.376	0.772	1.58	3.5
293.15 K	0.0303	0.046	0.0604	0.124	0.223	0.459	1.01	2.08	4.48
303.15 K	0.0379	0.0557	0.0726	0.143	0.267	0.552	1.25	2.62	5.51
313.15 K	0.0427	0.0643	0.0784	0.158	0.316	0.704	1.55	3.3	6.91
323.15 K	0.0448	0.0801	0.113	0.167	0.372	0.842	1.85	4.04	8.23

CN1CCN(C2=Nc3cc(Cl)ccc3Nc3ccccc32)CC1 + CC(C)O + O
solubility (g/100 g solution)
Settings	x2 = 0.03225	x2 = 0.06974	x2 = 0.1139	x2 = 0.1666	x2 = 0.2307	x2 = 0.3103	x2 = 0.4117	x2 = 0.5454	x2 = 0.7297
278.15 K	0.00624	0.0228	0.0624	0.135	0.239	0.393	0.559	0.783	0.957
283.15 K	0.00829	0.029	0.0775	0.164	0.288	0.463	0.667	0.914	1.13
288.15 K	0.0108	0.0371	0.096	0.199	0.35	0.567	0.781	1.08	1.32
293.15 K	0.014	0.0473	0.117	0.237	0.417	0.659	0.933	1.27	1.54
298.15 K	0.0182	0.06	0.144	0.283	0.493	0.781	1.09	1.47	1.78
303.15 K	0.0233	0.0733	0.171	0.336	0.578	0.917	1.25	1.72	2.07
308.15 K	0.0298	0.0919	0.207	0.399	0.675	1.06	1.47	1.96	2.37
313.15 K	0.0368	0.113	0.249	0.472	0.803	1.22	1.69	2.24	2.68
318.15 K	0.0461	0.137	0.295	0.552	0.923	1.42	1.95	2.58	3.06
323.15 K	0.0576	0.166	0.344	0.642	1.07	1.63	2.21	2.92	3.45
328.15 K	0.071	0.203	0.407	0.739	1.23	1.85	2.53	3.33	3.91

CC(C)=CCCC(C)C1CCC2(C)C3=C(CCC12C)C1(C)CCC(O)C(C)(C)C1CC3 (stereo not drawn) + CO + O
solubility (g/100 g solution)
Settings	296.67 K	306.81 K	316.94 K	328.97 K	338.78 K
x2 = 0.0229	8.14e-06	1.37e-05	3.09e-05	6.98e-05	0.000153
x2 = 0.09675	8.15e-06	1.39e-05	3.32e-05	8.15e-05	0.000161
x2 = 0.3065	7.26e-06	1.51e-05	3.94e-05	8.99e-05	0.000193
x2 = 0.5109	0.00011	0.000197	0.000378	0.000796	0.00195
x2 = 0.8048	0.0189	0.0422	0.0785	0.161	–

CN1CCN(C2=Nc3cc(Cl)ccc3Nc3ccccc32)CC1 + ClCCCl + Cc1ccccc1
solubility (g/100 g solution)
Settings	x2 = 0.09454	x2 = 0.1907	x2 = 0.2875	x2 = 0.3851	x2 = 0.4844	x2 = 0.5848	x2 = 0.6866	x2 = 0.79	x2 = 0.8945
293.15 K	2.42	2.81	3.04	3.48	3.87	4.26	4.74	5.15	5.47
298.15 K	2.8	3.04	3.49	3.86	4.38	4.96	5.44	5.92	6.3
303.15 K	3.12	3.63	3.88	4.47	5.03	5.87	6.44	6.95	7.31
308.15 K	3.94	4.47	4.94	5.58	6.12	6.82	7.42	8.2	8.68
313.15 K	4.7	5.37	5.95	6.67	7.33	8.06	8.85	9.38	9.62
318.15 K	5.75	6.09	6.93	7.46	8.32	9.3	9.75	10.8	11.5
323.15 K	7.24	7.72	8.87	9.82	10.7	11.6	12.3	13.2	13.6

Cc1ncc(C[n+]2csc(CCO)c2C)c(N)n1.O=[N+]([O-])[O-] + O + CO
solubility (g/100 g solution)
Settings	x2 = 0.1	x2 = 0.2	x2 = 0.3	x2 = 0.4	x2 = 0.5	x2 = 0.6	x2 = 0.7	x2 = 0.8	x2 = 0.9
278.15 K	0.197	0.323	0.483	0.678	0.884	1.03	1.17	1.18	1.2
283.15 K	0.221	0.371	0.566	0.801	1.05	1.24	1.41	1.43	1.44
288.15 K	0.273	0.429	0.66	0.918	1.24	1.47	1.67	1.68	1.7
293.15 K	0.35	0.52	0.79	1.08	1.47	1.77	2.02	2.04	2.08
298.15 K	0.422	0.636	0.951	1.34	1.77	2.19	2.5	2.54	2.54
303.15 K	0.518	0.786	1.17	1.64	2.18	2.68	3.06	3.14	3.1
308.15 K	0.657	0.983	1.46	1.96	2.64	3.23	3.75	3.85	3.77
313.15 K	0.812	1.24	1.81	2.52	3.25	3.94	4.6	4.72	4.55

Nc1[nH]c(=O)ncc1F + CS(C)=O + CC(C)O
solubility (g/100 g solution)
Settings	283.15 K	288.15 K	293.15 K	298.15 K	303.15 K	308.15 K	313.15 K	318.15 K	323.15 K
x2 = 0.0788	0.0921	0.111	0.133	0.162	0.192	0.228	0.268	0.315	0.37
x2 = 0.1614	0.168	0.202	0.237	0.282	0.331	0.386	0.451	0.526	0.615
x2 = 0.2481	0.248	0.291	0.341	0.401	0.466	0.543	0.625	0.717	0.826
x2 = 0.3392	0.336	0.388	0.451	0.521	0.606	0.693	0.798	0.914	1.05
x2 = 0.435	0.424	0.487	0.569	0.648	0.743	0.852	0.967	1.1	1.25
x2 = 0.5359	0.503	0.57	0.645	0.734	0.837	0.957	1.09	1.24	1.41
x2 = 0.6424	0.591	0.662	0.745	0.833	0.948	1.08	1.21	1.38	1.55
x2 = 0.7549	0.704	0.789	0.876	0.987	1.11	1.25	1.41	1.59	1.77
x2 = 0.8739	0.823	0.901	1	1.11	1.24	1.4	1.57	1.75	1.95

CC(=O)N1CCN(c2ccc(OCC3COC(Cn4ccnc4)(c4ccc(Cl)cc4Cl)O3)cc2)CC1 (stereo not drawn) + C1COCCO1 + O
solubility (g/100 g solution)
Settings	x2 = 0.02222	x2 = 0.04865	x2 = 0.0806	x2 = 0.12	x2 = 0.1698	x2 = 0.2348	x2 = 0.3231	x2 = 0.45	x2 = 0.648
293.15 K	0.00759	0.0327	0.155	0.537	2.07	6.72	16.6	22.9	18.7
298.15 K	0.00818	0.0386	0.171	0.692	2.58	8.67	18.8	25.4	20.6
303.15 K	0.00845	0.0485	0.197	0.87	3.25	10.9	21.1	27.8	22.6
308.15 K	0.00894	0.0594	0.216	1.04	4.24	13.4	24.4	29.9	24.3
313.15 K	0.00948	0.07	0.25	1.3	5.11	16	27.2	32.5	26.7

From the CheMixHub drug solubility set
